Measured values published in ChEMBL document CHEMBL5108027, “An unanticipated discovery of novel naphthalimidopropanediols as potential broad-spectrum antibacterial members” (Eur J Med Chem, 2022).
Converted amounts (≈) assume the structure as drawn.

Tests used:
Assay type in all cases: functional
Staphylococcus aureus [1] = test: Antibacterial activity against Staphylococcus aureus measured by Muller-Hinton broth based microdilution assay
Klebsiella pneumoniae = test: Antibacterial activity against Klebsiella pneumoniae measured by Muller-Hinton broth based microdilution assay
Staphylococcus aureus [2] = test: Antibacterial activity against methicillin-resistant Staphylococcus aureus N315 measured by Muller-Hinton broth based microdilution assay
Pseudomonas aeruginosa [3] = test: Antibacterial activity against Pseudomonas aeruginosa ATCC 27853 measured by Muller-Hinton broth based microdilution assay
Escherichia coli [4] = test: Antibacterial activity against Escherichia coli ATCC 25922 measured by Muller-Hinton broth based microdilution assay
Enterococcus faecalis = test: Antibacterial activity against Enterococcus faecalis measured by Muller-Hinton broth based microdilution assay
Escherichia coli [5] = test: Antibacterial activity against Escherichia coli measured by Muller-Hinton broth based microdilution assay
Staphylococcus aureus [6] = test: Antibacterial activity against Staphylococcus aureus ATCC 29213 measured by Muller-Hinton broth based microdilution assay
Pseudomonas aeruginosa [7] = test: Antibacterial activity against Pseudomonas aeruginosa measured by Muller-Hinton broth based microdilution assay
Staphylococcus aureus [8] = test: Antibacterial activity against Staphylococcus aureus ATCC 25923 measured by Muller-Hinton broth based microdilution assay
Acinetobacter baumannii = test: Antibacterial activity against Acinetobacter baumannii measured by Muller-Hinton broth based microdilution assay

Row | SMILES | MIC (Staphylococcus aureus [1]) | MIC (Klebsiella pneumoniae) | MIC (Staphylococcus aureus [2]) | MIC (Pseudomonas aeruginosa [3]) | MIC (Escherichia coli [4]) | MIC (Enterococcus faecalis) | MIC (Escherichia coli [5]) | MIC (Staphylococcus aureus [6]) | MIC (Pseudomonas aeruginosa [7]) | MIC (Staphylococcus aureus [8]) | MIC (Acinetobacter baumannii)
1 | O=C1c2cccc3c(N/N=C/c4ccc5ccccc5n4)ccc(c23)C(=O)N1C(CO)CO | 4 mg/L (≈ 9.08 µM) | 32 mg/L (≈ 72.7 µM) | 2 mg/L (≈ 4.54 µM) | 8 mg/L (≈ 18.2 µM) | 64 mg/L (≈ 145 µM) | 64 mg/L (≈ 145 µM) | 4 mg/L (≈ 9.08 µM) | 128 mg/L (≈ 291 µM) | 2 mg/L (≈ 4.54 µM) | 64 mg/L (≈ 145 µM) | 64 mg/L (≈ 145 µM)
2 | C=CCn1cc(/C=N/Nc2ccc3c4c(cccc24)C(=O)N(C(CO)CO)C3=O)c2ccccc21 | 64 mg/L (≈ 137 µM) | 4 mg/L (≈ 8.54 µM) | 64 mg/L (≈ 137 µM) | 64 mg/L (≈ 137 µM) | 16 mg/L (≈ 34.2 µM) | 64 mg/L (≈ 137 µM) | 32 mg/L (≈ 68.3 µM) | 32 mg/L (≈ 68.3 µM) | 128 mg/L (≈ 273 µM) | 16 mg/L (≈ 34.2 µM) | 64 mg/L (≈ 137 µM)
3 | O=C1c2cccc3c(N/N=C/c4ccc(O)c(Cl)c4)ccc(c23)C(=O)N1C(CO)CO | 64 mg/L (≈ 146 µM) | 64 mg/L (≈ 146 µM) | 64 mg/L (≈ 146 µM) | 32 mg/L (≈ 72.8 µM) | 64 mg/L (≈ 146 µM) | 64 mg/L (≈ 146 µM) | 16 mg/L (≈ 36.4 µM) | 64 mg/L (≈ 146 µM) | 8 mg/L (≈ 18.2 µM) | 32 mg/L (≈ 72.8 µM) | 64 mg/L (≈ 146 µM)
4 | O=C1c2cccc3c(N/N=C/c4ccc(C(F)(F)F)cc4)ccc(c23)C(=O)N1C(CO)CO | 8 mg/L (≈ 17.5 µM) | 4 mg/L (≈ 8.74 µM) | 64 mg/L (≈ 140 µM) | 8 mg/L (≈ 17.5 µM) | 32 mg/L (≈ 70 µM) | 4 mg/L (≈ 8.74 µM) | 32 mg/L (≈ 70 µM) | 2 mg/L (≈ 4.37 µM) | 16 mg/L (≈ 35 µM) | 32 mg/L (≈ 70 µM) | 64 mg/L (≈ 140 µM)
5 | O=C1c2cccc3c(N/N=C/c4ccccc4)ccc(c23)C(=O)N1C(CO)CO | 64 mg/L (≈ 164 µM) | 16 mg/L (≈ 41.1 µM) | 64 mg/L (≈ 164 µM) | 32 mg/L (≈ 82.2 µM) | 64 mg/L (≈ 164 µM) | 64 mg/L (≈ 164 µM) | 128 mg/L (≈ 329 µM) | 32 mg/L (≈ 82.2 µM) | 1 mg/L (≈ 2.57 µM) | 2 mg/L (≈ 5.14 µM) | 64 mg/L (≈ 164 µM)
6 | CCCCc1nc(Cl)c(/C=N/Nc2ccc3c4c(cccc24)C(=O)N(C(CO)CO)C3=O)[nH]1 | 32 mg/L (≈ 68.1 µM) | 8 mg/L (≈ 17 µM) | 64 mg/L (≈ 136 µM) | 8 mg/L (≈ 17 µM) | 32 mg/L (≈ 68.1 µM) | 32 mg/L (≈ 68.1 µM) | 16 mg/L (≈ 34 µM) | 32 mg/L (≈ 68.1 µM) | 64 mg/L (≈ 136 µM) | 64 mg/L (≈ 136 µM) | 64 mg/L (≈ 136 µM)
7 | O=C1c2cccc3c(N/N=C/c4cccs4)ccc(c23)C(=O)N1C(CO)CO | 64 mg/L (≈ 162 µM) | 4 mg/L (≈ 10.1 µM) | 4 mg/L (≈ 10.1 µM) | 32 mg/L (≈ 80.9 µM) | 32 mg/L (≈ 80.9 µM) | 16 mg/L (≈ 40.5 µM) | 32 mg/L (≈ 80.9 µM) | 8 mg/L (≈ 20.2 µM) | 64 mg/L (≈ 162 µM) | 64 mg/L (≈ 162 µM) | 64 mg/L (≈ 162 µM)
8 | N#Cc1ccc(/C=N/Nc2ccc3c4c(cccc24)C(=O)N(C(CO)CO)C3=O)cc1 | 4 mg/L (≈ 9.65 µM) | 2 mg/L (≈ 4.83 µM) | 32 mg/L (≈ 77.2 µM) | 4 mg/L (≈ 9.65 µM) | 16 mg/L (≈ 38.6 µM) | 8 mg/L (≈ 19.3 µM) | 32 mg/L (≈ 77.2 µM) | 2 mg/L (≈ 4.83 µM) | 32 mg/L (≈ 77.2 µM) | 8 mg/L (≈ 19.3 µM) | 32 mg/L (≈ 77.2 µM)
9 | O=C1c2cccc3c(N/N=C/c4ccco4)ccc(c23)C(=O)N1C(CO)CO | 32 mg/L (≈ 84.3 µM) | 64 mg/L (≈ 169 µM) | 32 mg/L (≈ 84.3 µM) | 16 mg/L (≈ 42.2 µM) | 64 mg/L (≈ 169 µM) | 32 mg/L (≈ 84.3 µM) | 32 mg/L (≈ 84.3 µM) | 32 mg/L (≈ 84.3 µM) | 32 mg/L (≈ 84.3 µM) | 32 mg/L (≈ 84.3 µM) | 32 mg/L (≈ 84.3 µM)
10 | O=C1c2cccc3c(N/N=C/c4ccc(Cl)cc4Cl)ccc(c23)C(=O)N1C(CO)CO | 32 mg/L (≈ 69.8 µM) | 128 mg/L (≈ 279 µM) | 32 mg/L (≈ 69.8 µM) | 128 mg/L (≈ 279 µM) | 256 mg/L (≈ 559 µM) | 64 mg/L (≈ 140 µM) | 256 mg/L (≈ 559 µM) | 8 mg/L (≈ 17.5 µM) | 128 mg/L (≈ 279 µM) | 8 mg/L (≈ 17.5 µM) | 128 mg/L (≈ 279 µM)
